Results taken from ChEMBL document CHEMBL1201862, “PubChem BioAssay data set” (2004).
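The compound was tested at five concentrations on cells cultured in 96-well plates, with a 48-hour exposure period. GI50 is the concentration that inhibits growth by half.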 Activity calls are given as the source filed them. Cut-off read from the data, not from the text of the source: active = GI50 up to about 1.1 µM and inactive = higher.

Legend:
Experiment in all cases: NCI tumour cell line growth inhibition, 48 h
RXF 393 = tested on: RXF 393
NCI-H522 = tested on: NCI-H522
HCC 2998 = tested on: HCC 2998
KM12 = tested on: KM12
SK-MEL-5 = tested on: SK-MEL-5
HOP-92 = tested on: HOP-92
HCT-15 = tested on: HCT-15
SK-OV-3 = tested on: SK-OV-3
A549 = tested on: A549
K562 = tested on: K562
SNB-19 = tested on: SNB-19
EKVX = tested on: EKVX
COLO 205 = tested on: COLO 205
UACC-62 = tested on: UACC-62
OVCAR-5 = tested on: OVCAR-5
UO-31 = tested on: UO-31
SNB-75 = tested on: SNB-75
NCI-H23 = tested on: NCI-H23
LOX IMVI = tested on: LOX IMVI
RPMI-8226 = tested on: RPMI-8226

| Structure (SMILES) | GI50 (RXF 393) | GI50 (NCI-H522) | GI50 (HCC 2998) | GI50 (KM12) | GI50 (SK-MEL-5) | GI50 (HOP-92) | GI50 (HCT-15) [µM] | GI50 (SK-OV-3) | GI50 (A549) | GI50 (K562) | GI50 (SNB-19) | GI50 (EKVX) | GI50 (COLO 205) | GI50 (UACC-62) | GI50 (OVCAR-5) | GI50 (UO-31) | GI50 (SNB-75) | GI50 (NCI-H23) | GI50 (LOX IMVI) | GI50 (RPMI-8226) |
| --- | --- | --- | --- | --- | --- | --- | --- | --- | --- | --- | --- | --- | --- | --- | --- | --- | --- | --- | --- | --- |
| NC(Cc1ccccc1CP(=O)(O)O)C(=O)O (stereo not given) | > 100 µM (inactive) | > 100 µM (inactive) | > 100 µM (inactive) | > 100 µM (inactive) | > 100 µM (inactive) | > 100 µM (inactive) | > 100 | > 100 µM (inactive) | > 100 µM (inactive) | > 100 µM (inactive) | > 100 µM (inactive) | > 100 µM (inactive) | > 100 µM (inactive) | 53 µM (inactive) | > 100 µM (inactive) | > 100 µM (inactive) | > 100 µM (inactive) | > 100 µM (inactive) | > 100 µM (inactive) | > 100 µM (inactive) |
| CC1=NN(C(=O)c2ccc(C)cc2)C(=O)C1/N=N/c1ccccc1C(=O)O (stereo not given) | > 100 µM (inactive) | 29.6 µM (inactive) | > 100 µM (inactive) | > 100 µM (inactive) | > 100 µM (inactive) | > 79.8 µM (inactive) | 52.6 | > 100 µM (inactive) | > 100 µM (inactive) | 66.4 µM (inactive) | > 100 µM (inactive) | > 100 µM (inactive) | > 100 µM (inactive) | > 100 µM (inactive) | > 100 µM (inactive) | > 100 µM (inactive) | > 37.7 µM (inactive) | > 100 µM (inactive) | > 100 µM (inactive) | 95.7 µM (inactive) |
| O=C1C(CO)=C[C@H](O)[C@H]2O[C@@H]12 | 153 µM (inactive) | 88.7 µM (inactive) | 311 µM (inactive) | 83.9 µM (inactive) | 202 µM (inactive) | 283 µM (inactive) | 124 | 330 µM (inactive) | 318 µM (inactive) | 163 µM (inactive) | 419 µM (inactive) | 121 µM (inactive) | 111 µM (inactive) | 113 µM (inactive) | 264 µM (inactive) | 267 µM (inactive) | 335 µM (inactive) | 238 µM (inactive) | 136 µM (inactive) | > 96.8 µM (inactive) |
